The IC50 is the concentration that inhibits the measured activity by half. A lower IC50 goes with greater potency in that assay.

Each structure is given as a SMILES string.

The target of this assay is T1, human histamine-H3 receptor (Homo sapiens, UniProt Q9Y5N1).
T1 construct: expressed in transfected cells; host or cells: HEK293 and CHO-K1 (membrane preparation)
T1 sequence (Q9Y5N1 whole entry): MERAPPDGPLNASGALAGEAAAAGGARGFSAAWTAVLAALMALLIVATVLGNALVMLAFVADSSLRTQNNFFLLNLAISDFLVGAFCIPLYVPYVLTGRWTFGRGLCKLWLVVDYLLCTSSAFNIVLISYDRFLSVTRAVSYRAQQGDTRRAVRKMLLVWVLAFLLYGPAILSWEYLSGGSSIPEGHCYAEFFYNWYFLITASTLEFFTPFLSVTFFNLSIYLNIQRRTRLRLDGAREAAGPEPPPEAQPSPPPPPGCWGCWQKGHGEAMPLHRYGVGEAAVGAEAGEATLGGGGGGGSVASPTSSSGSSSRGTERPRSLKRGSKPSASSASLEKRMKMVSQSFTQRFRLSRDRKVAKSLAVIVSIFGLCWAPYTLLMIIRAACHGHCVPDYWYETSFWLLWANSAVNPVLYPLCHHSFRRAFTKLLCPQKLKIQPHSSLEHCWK
Briefly: Histamine analogue-binding inhibition test. As to conditions: 50% inhibitory concentration to specific [3H]N-α-methylhistamine binding; membrane specimen of histamine-H3 receptor expression cells; 25° C., 2 hours, pH 7.4. The source says:
A cDNA sequence coding for a human histamine-H3 receptor [see WO00/39164) was cloned with expression vectors pCR2.1, pEF1× (by Invitrogen) and pCI-neo (by Promega). The resulting expression vector was transfected into host cells, HEK293 and CHO-K1 (American Type Culture Collection), according to a cationic lipid process [see Proceedings of the National Academy of Sciences of the United States of America, Vol., 84, p. 7413 (1987)] to obtain histamine-H3 receptor expression cells.
A membrane specimen prepared from the cells having expressed a histamine-H3 receptor was incubated in an assay buffer (50 mM Tris buffer, pH 7.4) along with a test compound and 20,000 cpm [3H]N-α-methylhistamine (by NEN) therein, at 25° C. for 2 hours, and then filtered through a glass filter GF/C. After washed with 50 mM Tris buffer (pH 7.4), the radioactivity on the glass filter was determined. The non-specific binding was determined in the presence of 10 μM thioperamide (by SIGAM), and the 50% inhibitory concentration (IC50) of the test compound to the specific N-alpha-methylhistamine binding was calculated [see Molecular Pharmacology, Vol. 55, p. 1101 (1999)].
On to `CN(CCN1CCCC1)C(=O)[C@H]1CC[C@@]2(CC1)OC(=O)c1ncccc12` [Example 3, Trans-3′-oxo-N-methyl-N-(2-pyrrolidin-1-ylethyl)-spiro[cyclohexane-1,1′-(3′H)-4′-azaisobenzofuran]-4-carboxamide], for which the IC50 came to 0.72 nM.
`COc1ccc2c(n1)C(=O)O[C@]21CC[C@H](C(=O)N(C)CCN2CCCCC2)CC1` [Example 11, Trans-5′-methoxy-3′-oxo-N-methyl-N-(2-piperidin-1-ylethyl)-spiro[cyclohexane-1,1′-(3′H)-4′-azaisobenzofuran]-4-carboxamide] gave an IC50 of 0.92 nM.
For `COc1ccc2c(n1)C(=O)O[C@]21CC[C@H](C(=O)N(C)CCN2CCCC2)CC1` [Example 13, Trans-5′-methoxy-3′-oxo-N-methyl-N-(2-pyrrolidin-1-ylethyl)-spiro[cyclohexane-1,1′-(3′H)-4′-azaisobenzofuran]-4-carboxamide], the concentration for half-maximal inhibition (IC50) was found to be 0.92 nM.
With `CN(CCN1CCCC1)C(=O)[C@H]1CC[C@@]2(CC1)OC(=O)c1nc(N3CCCCC3)ccc12` [Example 17, Trans-5′-(piperidin-1-yl)-3′-oxo-N-methyl-N-(2-pyrrolidin-1-ylethyl)-spiro[cyclohexane-1,1′-(3′H)-4′-azaisobenzofuran]-4-carboxamide], the IC50 was 1.9 nM.
Compound `CN(CCN1CCCC1)C(=O)[C@H]1CC[C@@]2(CC1)OC(=O)c1nc(-c3ccccc3)ccc12` [Example 21, Trans-5′-phenyl-3′-oxo-N-methyl-N-(2-pyrrolidin-1-ylethyl)-spiro[cyclohexane-1,1′-(3′H)-4′-azaisobenzofuran]-4-carboxamide] had an IC50 of 0.42 nM.
`COc1nccc2c1C(=O)O[C@]21CC[C@H](C(=O)N(C)CCN2CCCCC2)CC1` [Example 34, Trans-4′-methoxy-3′-oxo-N-methyl-N-(2-piperidin-1-ylethyl)-spiro[cyclohexane-1,1′-(3′H)-5′-azaisobenzofuran]-4-carboxamide] yielded an IC50 of 0.32 nM.
In the case of `Cc1nccc2c1C(=O)O[C@]21CC[C@H](C(=O)N(C)CCN2CCCCC2)CC1` [Example 41, Trans-4′-methyl-3′-oxo-N-methyl-N-(2-piperidin-1-ylethyl)-spiro[cyclohexane-1,1′-(3′H)-5′-azaisobenzofuran]-4-carboxamide] it was 0.51 nM; in that of `CN(CCN1CCCCC1)C(=O)[C@H]1CC[C@@]2(CC1)OC(=O)c1c(-c3cnn(C)c3)nccc12` [Example 45, Trans-4′-(1-methyl-1H-pyrazol-4-yl)-3′-oxo-N-methyl-N-(2-piperidin-1-ylethyl)-spiro[cyclohexane-1,1′-(3′H)-5′-azaisobenzofuran]-4-carboxamide], 0.14 nM; in that of `CN(CCN1CCCCC1)C(=O)[C@H]1CC[C@@]2(CC1)OC(=O)c1nc(-c3cnccn3)ccc12` [Example 54, Trans-5′-pyrazinyl-3′-oxo-N-methyl-N-(2-piperidin-1-ylethyl)-spiro[cyclohexane-1,1′-(3′H)-4′-azisobenzofuran]-4-carboxamide], 0.07 nM.

The record behind these values is patent publication US8158791B2, “Aza-substituted spiro derivatives” (MSD K.K., priority 2005, dated 2012).
